The source of these data is patent US20100305060A1, “Nucleoside Prodrugs and Uses Thereof” (Ligand Pharmaceuticals Incorporated, priority 2007, published 2010).

By IC50 is commonly meant the concentration that inhibits the measured activity by half. The term EC50 denotes the concentration that produces a half-maximal response.

Series [1] relates to HCV. As to conditions: phase 2 study, 1500 mg BID for 14 days; cited from earlier work.
The test system of series [2] is HCV. Conditions: chimpanzee, 7 days, cited from earlier work.
The target in series [3] is T1, Hepatitis C virus NS5B polymerase (Hepatitis C virus genotype 1b, UniProt Q9WMX2).
T1 construct: Hepatitis C virus NS5B polymerase is an RNA-dependent RNA polymerase (RdRp)
T1 sequence (Q9WMX2 2420-3010): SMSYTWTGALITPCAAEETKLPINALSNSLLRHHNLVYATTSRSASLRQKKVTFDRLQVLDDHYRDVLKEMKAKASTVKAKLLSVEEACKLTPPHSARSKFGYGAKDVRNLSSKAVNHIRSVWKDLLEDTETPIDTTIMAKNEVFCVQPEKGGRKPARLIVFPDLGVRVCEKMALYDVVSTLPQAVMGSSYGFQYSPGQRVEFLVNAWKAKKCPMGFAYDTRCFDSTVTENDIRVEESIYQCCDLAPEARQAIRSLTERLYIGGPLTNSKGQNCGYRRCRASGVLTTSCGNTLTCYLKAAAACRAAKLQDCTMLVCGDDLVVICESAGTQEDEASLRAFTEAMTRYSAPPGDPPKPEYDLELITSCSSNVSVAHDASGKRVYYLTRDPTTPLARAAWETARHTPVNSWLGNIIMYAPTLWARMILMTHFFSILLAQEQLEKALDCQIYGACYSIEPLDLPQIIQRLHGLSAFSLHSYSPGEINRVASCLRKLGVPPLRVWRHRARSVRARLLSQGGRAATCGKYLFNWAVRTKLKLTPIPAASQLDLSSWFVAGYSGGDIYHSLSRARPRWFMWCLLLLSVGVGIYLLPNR
As to conditions: compound tested as its triphosphate; read-out: NS5b IC50 of NTP; cited from earlier work.

A further series deals with Replicon. As to conditions: cited from earlier work.
The conditions of series [4]: rat, in vivo, po, 50 mg/kg.
The conditions of series [5]: rat, in vivo, po, 50 mg/kg; cited from earlier work.

Like-named read-outs stand apart in the source and are kept apart here.

For the compound `CC(C)C(=O)OC[C@@]1(N=[N+]=[N-])O[C@@H](n2ccc(N)nc2=O)[C@H](OC(=O)C(C)C)[C@@H]1OC(=O)C(C)C` [Compound 81626], the “mean reduction in serum viral titre” value with HCV [1] is on record as 1.2 log10.

For `C[C@@]1(O)[C@H](O)[C@@H](CO)O[C@H]1n1ccc2c(N)ncnc21` [MK-0608], the “reduction in viral titre” value with HCV [2] (intravenous 2 mg/kg/day) is recorded as over 5 log10.

On to `CC(C)[C@H](N)C(=O)O[C@@H]1[C@@H](CO)O[C@@H](n2ccc(N)nc2=O)[C@]1(C)O` [NM283], for which, in the series on HCV [2] (16.6 mg/kg/day), the “reduction in viral titre” value was 1.15 log10.

Take `C[C@@]1(F)[C@H](O)[C@@H](CO)O[C@H]1n1ccc(N)nc1=O` [PSI-6130, β-D-2′-deoxy-2′-fluoro-2′-C-methylcytidine]: the IC50 in series [3] was 130 nM. In the series on Replicon, the half-maximal effective concentration (EC50) was 600 nM and the “activity in the replicon assay” value was “potent”.

In the case of `COC(=O)[C@H](C)NP(=O)(OC[C@H]1O[C@@H](n2ccc(=O)[nH]c2=O)[C@](C)(F)[C@@H]1O)Oc1ccccc1` (stereo partly drawn) [PSI-7672], the EC50 with Replicon was 1600 nM.

Regarding `CC(C)OC(=O)[C@H](C)NP(=O)(OC[C@H]1O[C@@H](n2ccc(=O)[nH]c2=O)[C@](C)(F)[C@@H]1O)Oc1ccccc1` (stereo partly drawn) [PSI-7851], the “liver triphosphate level converted to molar units” value in series [4] is listed as 5.1 nmol/g. In series [5], the liver triphosphate levels was 2550 ng/g.

With `C[C@@]1(F)[C@H](O)[C@@H](CO)O[C@H]1n1ccc(=O)[nH]c1=O` [RO2433, 2′-deoxy-2′-fluoro-2′-C-methyl-uridine], in series [3], the IC50 was 520 nM. Besides, in the series with Replicon, the concentration giving a half-maximal response (EC50) was over 100000 nM and the “activity in the replicon assay” value is “inactive”.
